# Test results published in patent publication US7074789B2, “Kinase inhibitors” (Amgen Inc., priority 1999, dated 2006).
# pIC50: −log10 of the molar value.
# How the values were obtained:
# Type in all cases: biochemical
# EGFR = target: T1, EGFR (Homo sapiens, UniProt P00533); test: Kinase inhibition assay (33P transfer), EGFR; conditions: Table 2, class symbols A-E; read-out: EGFR-1
# T1 construct: Kinases are expressed as either kinase domains or full length constructs; made in house
# How it was run: (§1)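 Read-out: scintillation counts of 33P moved from ATP onto synthetic peptide polymer coated on the well surface, after washing with 0.5% phosphoric acid. Enzymes were tagged (GST or polyHistidine) and came from bacterial or insect-cell expression. IC50 marks 50% loss of incorporated label.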
# Kdr = target: T2, Kdr (Homo sapiens, UniProt P35968); test: Kinase inhibition assay (33P transfer), Kdr; conditions: Table 3, class symbols; read-out: KDR-1
# T2 construct: Kinases are expressed as either kinase domains or full length constructs; made in house
# T2 sequence (P35968 20-1356, species assumed): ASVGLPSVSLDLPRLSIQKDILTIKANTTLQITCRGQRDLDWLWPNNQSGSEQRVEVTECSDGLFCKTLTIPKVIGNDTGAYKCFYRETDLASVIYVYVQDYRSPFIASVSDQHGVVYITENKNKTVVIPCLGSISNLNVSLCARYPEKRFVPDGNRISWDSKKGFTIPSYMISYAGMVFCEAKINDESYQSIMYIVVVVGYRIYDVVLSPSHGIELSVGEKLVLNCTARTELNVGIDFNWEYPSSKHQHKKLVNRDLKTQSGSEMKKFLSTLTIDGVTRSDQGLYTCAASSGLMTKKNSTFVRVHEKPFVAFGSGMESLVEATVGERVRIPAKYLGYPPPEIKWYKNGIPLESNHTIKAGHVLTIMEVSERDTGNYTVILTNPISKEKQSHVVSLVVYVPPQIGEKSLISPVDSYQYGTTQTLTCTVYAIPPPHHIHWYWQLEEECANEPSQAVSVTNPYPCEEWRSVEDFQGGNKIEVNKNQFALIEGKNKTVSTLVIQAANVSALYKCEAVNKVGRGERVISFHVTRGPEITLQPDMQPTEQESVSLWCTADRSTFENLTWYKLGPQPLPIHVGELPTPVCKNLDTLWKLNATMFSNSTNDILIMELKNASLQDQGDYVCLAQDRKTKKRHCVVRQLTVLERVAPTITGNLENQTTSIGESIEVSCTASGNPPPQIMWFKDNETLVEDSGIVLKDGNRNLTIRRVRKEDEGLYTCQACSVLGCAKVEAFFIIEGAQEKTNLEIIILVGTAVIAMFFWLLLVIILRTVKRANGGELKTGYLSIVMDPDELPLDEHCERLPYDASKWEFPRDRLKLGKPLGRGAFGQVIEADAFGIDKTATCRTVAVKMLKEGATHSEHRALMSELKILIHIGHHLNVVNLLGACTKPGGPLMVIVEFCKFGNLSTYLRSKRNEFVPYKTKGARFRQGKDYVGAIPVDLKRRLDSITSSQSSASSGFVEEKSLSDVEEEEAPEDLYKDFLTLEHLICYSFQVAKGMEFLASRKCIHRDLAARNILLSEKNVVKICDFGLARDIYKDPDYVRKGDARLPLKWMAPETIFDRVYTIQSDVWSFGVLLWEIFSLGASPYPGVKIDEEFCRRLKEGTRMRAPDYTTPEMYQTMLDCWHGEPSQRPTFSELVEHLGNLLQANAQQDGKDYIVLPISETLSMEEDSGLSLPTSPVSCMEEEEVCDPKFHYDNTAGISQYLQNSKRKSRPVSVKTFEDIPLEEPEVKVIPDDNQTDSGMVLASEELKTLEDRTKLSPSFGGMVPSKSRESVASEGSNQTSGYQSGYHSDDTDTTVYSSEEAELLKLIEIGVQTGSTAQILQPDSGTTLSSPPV
# How it was run: (§2)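 Steps: express kinase as GST or polyHistidine fusion in E. coli or High Five cells; optionally co-express or mix with regulatory polypeptides; incubate with 33P-ATP and plate-attached poly(Glu,Tyr) 4:1 or poly(Arg,Ser) 3:1; wash with 0.5% phosphoric acid; count by liquid scintillation.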
# PDGFRB = target: T3, PDGFRB (Homo sapiens, UniProt P09619); test: Kinase inhibition assay (33P transfer), PDGFRB; conditions: read-out: PDGFRB-1
# T3 construct: Kinases are expressed as either kinase domains or full length constructs; made in house
# T3 sequence (P09619 33-1106, species assumed): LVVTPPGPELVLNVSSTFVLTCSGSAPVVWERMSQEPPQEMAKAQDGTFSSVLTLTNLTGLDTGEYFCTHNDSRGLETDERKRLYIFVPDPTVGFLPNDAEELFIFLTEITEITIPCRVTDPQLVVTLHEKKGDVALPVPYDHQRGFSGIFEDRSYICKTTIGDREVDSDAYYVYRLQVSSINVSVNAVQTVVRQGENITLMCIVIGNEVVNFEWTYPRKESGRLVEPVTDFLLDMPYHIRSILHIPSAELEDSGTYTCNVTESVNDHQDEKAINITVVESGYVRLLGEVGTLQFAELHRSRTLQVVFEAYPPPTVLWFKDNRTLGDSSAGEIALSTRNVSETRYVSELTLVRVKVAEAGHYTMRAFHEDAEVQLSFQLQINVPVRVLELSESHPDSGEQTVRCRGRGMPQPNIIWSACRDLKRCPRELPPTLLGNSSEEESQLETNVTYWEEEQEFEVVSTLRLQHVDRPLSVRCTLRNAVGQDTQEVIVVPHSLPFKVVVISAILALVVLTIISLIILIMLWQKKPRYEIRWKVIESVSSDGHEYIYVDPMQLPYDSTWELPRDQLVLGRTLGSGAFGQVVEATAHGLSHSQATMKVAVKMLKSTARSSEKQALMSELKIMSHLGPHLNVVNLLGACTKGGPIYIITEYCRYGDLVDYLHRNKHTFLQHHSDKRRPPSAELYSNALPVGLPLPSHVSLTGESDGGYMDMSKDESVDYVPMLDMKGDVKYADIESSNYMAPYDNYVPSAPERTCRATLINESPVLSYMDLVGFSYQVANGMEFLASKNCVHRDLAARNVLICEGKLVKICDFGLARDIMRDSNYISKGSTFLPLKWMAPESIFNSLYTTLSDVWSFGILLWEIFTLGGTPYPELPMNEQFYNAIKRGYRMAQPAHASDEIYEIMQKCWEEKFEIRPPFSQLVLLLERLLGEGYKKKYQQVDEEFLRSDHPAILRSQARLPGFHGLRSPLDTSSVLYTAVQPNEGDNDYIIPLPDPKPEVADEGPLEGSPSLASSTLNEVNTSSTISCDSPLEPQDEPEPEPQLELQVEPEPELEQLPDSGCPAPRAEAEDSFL
# Itk = target: T4, Itk (Homo sapiens, UniProt Q08881); test: Kinase inhibition assay (33P transfer), Itk; conditions: Table 3, class symbols; read-out: Itk-1
# T4 construct: Kinases are expressed as either kinase domains or full length constructs; made in house
# T4 sequence (Q08881 1-620): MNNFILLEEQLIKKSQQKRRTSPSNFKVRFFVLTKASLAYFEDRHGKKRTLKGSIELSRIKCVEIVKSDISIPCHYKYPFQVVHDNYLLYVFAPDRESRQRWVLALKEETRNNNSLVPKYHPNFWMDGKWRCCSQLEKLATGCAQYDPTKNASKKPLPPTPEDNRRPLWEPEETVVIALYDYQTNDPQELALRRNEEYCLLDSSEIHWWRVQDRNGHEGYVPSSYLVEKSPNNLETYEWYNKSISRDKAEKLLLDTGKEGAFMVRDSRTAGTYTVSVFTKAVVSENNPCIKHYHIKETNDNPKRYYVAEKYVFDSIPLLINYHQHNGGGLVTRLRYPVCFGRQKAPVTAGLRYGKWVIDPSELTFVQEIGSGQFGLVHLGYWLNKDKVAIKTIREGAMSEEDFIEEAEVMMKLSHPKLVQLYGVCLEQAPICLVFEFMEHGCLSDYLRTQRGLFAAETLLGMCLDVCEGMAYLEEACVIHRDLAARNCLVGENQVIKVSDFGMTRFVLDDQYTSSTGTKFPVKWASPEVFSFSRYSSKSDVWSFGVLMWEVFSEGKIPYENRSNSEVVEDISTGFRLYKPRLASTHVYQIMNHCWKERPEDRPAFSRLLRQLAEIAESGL
# How it was run: as §1
# ErbB2 = target: T5, ErbB2 (Homo sapiens, UniProt P04626); test: Kinase inhibition assay (33P transfer), ErbB2; conditions: read-out: ErbB2-2
# T5 construct: Kinases are expressed as either kinase domains or full length constructs; made in house
# T5 sequence (P04626 23-1255, species assumed): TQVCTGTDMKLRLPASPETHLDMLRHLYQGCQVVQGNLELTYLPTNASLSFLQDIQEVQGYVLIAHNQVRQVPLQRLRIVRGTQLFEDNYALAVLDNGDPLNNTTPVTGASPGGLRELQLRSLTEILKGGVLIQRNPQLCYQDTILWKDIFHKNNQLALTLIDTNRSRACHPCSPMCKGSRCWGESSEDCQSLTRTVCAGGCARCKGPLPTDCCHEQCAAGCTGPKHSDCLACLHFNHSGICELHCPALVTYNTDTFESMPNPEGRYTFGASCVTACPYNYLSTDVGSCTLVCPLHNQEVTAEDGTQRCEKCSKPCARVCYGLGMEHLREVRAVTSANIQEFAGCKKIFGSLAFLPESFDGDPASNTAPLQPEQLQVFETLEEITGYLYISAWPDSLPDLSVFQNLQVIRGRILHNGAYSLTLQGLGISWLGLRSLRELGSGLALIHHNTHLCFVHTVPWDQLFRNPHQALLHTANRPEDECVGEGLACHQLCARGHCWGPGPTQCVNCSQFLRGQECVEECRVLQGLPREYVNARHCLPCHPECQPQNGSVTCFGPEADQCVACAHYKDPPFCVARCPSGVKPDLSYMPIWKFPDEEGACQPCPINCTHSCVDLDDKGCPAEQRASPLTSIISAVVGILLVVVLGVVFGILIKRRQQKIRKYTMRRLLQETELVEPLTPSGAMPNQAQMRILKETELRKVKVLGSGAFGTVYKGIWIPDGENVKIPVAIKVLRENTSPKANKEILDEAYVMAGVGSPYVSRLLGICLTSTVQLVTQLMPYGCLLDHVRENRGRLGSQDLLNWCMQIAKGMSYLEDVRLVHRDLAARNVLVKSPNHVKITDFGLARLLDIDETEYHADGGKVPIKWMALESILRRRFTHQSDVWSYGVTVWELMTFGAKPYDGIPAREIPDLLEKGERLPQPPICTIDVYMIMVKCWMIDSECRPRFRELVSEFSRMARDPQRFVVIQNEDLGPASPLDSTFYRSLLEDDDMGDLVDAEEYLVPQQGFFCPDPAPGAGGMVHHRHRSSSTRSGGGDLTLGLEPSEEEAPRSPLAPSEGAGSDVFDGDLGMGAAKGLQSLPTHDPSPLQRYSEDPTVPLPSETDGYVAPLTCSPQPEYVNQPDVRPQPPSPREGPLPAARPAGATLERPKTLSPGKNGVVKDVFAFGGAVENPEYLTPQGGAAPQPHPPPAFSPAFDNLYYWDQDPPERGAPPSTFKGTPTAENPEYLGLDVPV
# How it was run: as §1
# IGFR-1 = target: T6, IGFR-1 (Homo sapiens, UniProt P08069); test: Kinase inhibition assay (33P transfer), IGFR-1; conditions: Table 2, class symbols A-E
# T6 construct: Kinases are expressed as either kinase domains or full length constructs; made in house
# AKT = target: T7, AKT (Homo sapiens, UniProt Q9Y243); test: Kinase inhibition assay (33P transfer), AKT; conditions: Table 2, class symbols A-E; read-out: AKT3-1
# T7 construct: Kinases are expressed as either kinase domains or full length constructs; made in house
# T7 sequence (Q9Y243 whole entry, the tested form may be a part): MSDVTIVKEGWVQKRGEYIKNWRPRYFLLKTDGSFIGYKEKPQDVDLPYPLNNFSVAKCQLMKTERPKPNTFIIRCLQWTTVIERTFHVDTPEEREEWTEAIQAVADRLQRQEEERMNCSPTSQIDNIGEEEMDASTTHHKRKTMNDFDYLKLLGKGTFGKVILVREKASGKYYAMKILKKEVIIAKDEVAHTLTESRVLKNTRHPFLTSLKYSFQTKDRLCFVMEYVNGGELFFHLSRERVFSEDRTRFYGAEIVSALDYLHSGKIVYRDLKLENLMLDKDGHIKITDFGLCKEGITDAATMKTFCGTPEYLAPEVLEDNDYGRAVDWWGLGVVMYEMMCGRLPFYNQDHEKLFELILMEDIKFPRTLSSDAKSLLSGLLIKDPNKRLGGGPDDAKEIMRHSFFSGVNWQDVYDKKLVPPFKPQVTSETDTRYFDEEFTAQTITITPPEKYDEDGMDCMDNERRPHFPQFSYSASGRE
# How it was run: as §2
# Zap-70 = target: T8, Zap-70 (Homo sapiens, UniProt P43403); test: Kinase inhibition assay (33P transfer), Zap-70; conditions: Table 3, class symbols; read-out: Zap-1
# T8 construct: Kinases are expressed as either kinase domains or full length constructs; made in house
# T8 sequence (P43403 1-619): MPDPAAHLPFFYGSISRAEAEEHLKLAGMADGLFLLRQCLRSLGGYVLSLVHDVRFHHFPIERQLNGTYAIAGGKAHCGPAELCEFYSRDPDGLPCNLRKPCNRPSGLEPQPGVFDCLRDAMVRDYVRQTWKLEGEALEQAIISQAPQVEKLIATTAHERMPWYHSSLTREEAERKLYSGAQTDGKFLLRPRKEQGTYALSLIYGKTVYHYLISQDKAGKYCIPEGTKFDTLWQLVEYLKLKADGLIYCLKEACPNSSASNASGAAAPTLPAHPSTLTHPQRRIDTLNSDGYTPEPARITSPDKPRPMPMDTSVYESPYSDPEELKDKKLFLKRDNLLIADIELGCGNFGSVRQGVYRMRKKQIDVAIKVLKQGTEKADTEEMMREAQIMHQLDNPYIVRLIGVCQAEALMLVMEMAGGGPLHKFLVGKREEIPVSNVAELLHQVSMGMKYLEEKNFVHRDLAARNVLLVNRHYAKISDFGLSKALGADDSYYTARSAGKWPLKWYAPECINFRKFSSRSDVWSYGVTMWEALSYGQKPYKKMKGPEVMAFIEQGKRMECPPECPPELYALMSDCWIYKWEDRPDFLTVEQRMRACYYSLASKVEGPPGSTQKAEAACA
# How it was run: as §2
# Lck = target: T9, Lck (Homo sapiens, UniProt P06239); test: Kinase inhibition assay (33P transfer), Lck; conditions: Table 3, class symbols; read-out: Lck-1
# T9 construct: Kinases are expressed as either kinase domains or full length constructs; made in house
# T9 sequence (P06239 whole entry, species assumed, the tested form may be a part): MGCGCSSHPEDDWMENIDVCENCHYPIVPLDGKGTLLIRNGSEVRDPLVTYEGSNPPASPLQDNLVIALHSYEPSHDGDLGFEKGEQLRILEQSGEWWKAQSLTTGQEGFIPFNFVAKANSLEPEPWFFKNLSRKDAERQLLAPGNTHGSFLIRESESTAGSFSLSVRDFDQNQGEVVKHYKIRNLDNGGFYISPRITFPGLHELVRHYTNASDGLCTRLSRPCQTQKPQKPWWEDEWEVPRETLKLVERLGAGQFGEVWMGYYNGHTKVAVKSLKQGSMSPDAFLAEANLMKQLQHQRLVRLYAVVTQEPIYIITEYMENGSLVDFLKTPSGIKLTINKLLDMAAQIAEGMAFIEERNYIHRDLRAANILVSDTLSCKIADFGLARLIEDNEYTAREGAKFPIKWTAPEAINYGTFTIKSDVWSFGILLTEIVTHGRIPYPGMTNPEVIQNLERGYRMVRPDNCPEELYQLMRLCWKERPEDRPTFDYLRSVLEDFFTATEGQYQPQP
# How it was run: as §2
# c-Met = target: T10, c-Met (Homo sapiens, UniProt P08581); test: Kinase inhibition assay (33P transfer), c-Met; conditions: Table 2, class symbols A-E; read-out: Met-1
# T10 construct: Kinases are expressed as either kinase domains or full length constructs; made in house
# How it was run: as §1
Structure (SMILES),pIC50 (EGFR),pIC50 (Kdr),pIC50 (PDGFRB),pIC50 (Itk),pIC50 (ErbB2),pIC50 (IGFR-1),pIC50 (AKT),pIC50 (Zap-70),pIC50 (Lck),pIC50 (c-Met)
c1ccc(CNc2ncccc2-c2ncnc(Nc3ccc(N4CCOCC4)cc3)n2)cc1 [Compound 1105],< 4.99,> 6.04,> 6.04,< 4.99,< 4.99,< 4.99,< 4.99,< 4.99,< 4.99,< 4.99
Fc1ccc(CNc2ncccc2-c2ncnc(Nc3ccc(N4CCOCC4)cc3)n2)cc1 [Compound 1106],< 5.01,5.28 to 6.06,5.28 to 6.06,< 5.01,< 5.01,< 5.01,< 5.01,< 5.01,< 5.01,< 5.01
Fc1ccc(CNc2ncccc2-c2ncnc(Nc3ccc4[nH]ncc4c3)n2)cc1 [Compound 1108],5.24 to 6.01,> 6.01,> 6.01,5.07 to 5.24,< 4.96,5.07 to 5.24,5.24 to 6.01,5.07 to 5.24,5.07 to 5.24,< 4.96
Fc1ccc(CNc2ncccc2-c2ncnc(Nc3cccc(Cn4ccnc4)c3)n2)cc1 [Compound 1109],5.28 to 6.05,> 6.05,> 6.05,> 6.05,5.28 to 6.05,5.28 to 6.05,< 5.00,5.11 to 5.28,5.28 to 6.05,5.11 to 5.28
Cc1ccc(-c2cc(Nc3ncnc(Nc4cc(C)ccc4C)n3)[nH]n2)cc1 [Compound 1125],> 5.97,5.19 to 5.97,5.19 to 5.97,> 5.97,5.19 to 5.97,> 5.97,< 4.92,< 4.92,> 5.97,5.19 to 5.97
COc1ccc(Nc2ncnc(Nc3cc(-c4ccc(C)cc4)n[nH]3)n2)c(C)c1 [Compound 1126],5.21 to 5.99,5.04 to 5.21,5.21 to 5.99,5.21 to 5.99,5.21 to 5.99,> 5.99,< 4.93,< 4.93,> 5.99,5.21 to 5.99
COc1cc(C)c(Nc2ncnc(Nc3cc(-c4ccc(C)cc4)n[nH]3)n2)cc1OC [Compound 1127],< 4.97,< 4.97,< 4.97,< 4.97,< 4.97,> 6.02,< 4.97,< 4.97,< 4.97,> 6.02
COc1cc(C)c(Nc2ncnc(Nc3cc(-c4ccc(Cl)cc4)n[nH]3)n2)cc1OC [Compound 1128],4.99 to 5.10,5.26 to 6.04,< 4.99,5.26 to 6.04,5.26 to 6.04,> 6.04,< 4.99,< 4.99,5.26 to 6.04,5.26 to 6.04
